Test results as given in patent US20220081433A1, “CYCLIC SULFAMIDE COMPOUNDS FOR TREATMENT OF HBV” (Assembly Biosciences, Inc., priority 2018, published 2022).

Tested on: HBV
Assay: Activity of test compounds on viral production from HepAD38 cells (viral load by qPCR of HBV core sequence)
Format: cell-based
Conditions: Hepatitis B virus, 120 h, 5 days, supernatant HBV DNA by qPCR vs DMSO control, read-out: viral load lowering EC50 (Activity)
Procedure: Assay Measuring Activity of Test Compounds on Viral Production from HepAD38 Cells
HepAD38 cells grown in a T-150 flask (Corning, cat#: 430825) with Growth Medium (DMEM/F12 (1:1) (Hyclone, cat#: SH30023.02), 1× Pen/Strep (Invitrogen, cat#: 15140-122), 10% FBS (Tissue Culture Biologics, cat#: 101), 250 μg/mL G418 (Alfa Aesar, cat#: J62671), 1 μg/mL Tetracycline (Teknova, cat#: T3320)) were detached with 0.25% trypsin-EDTA (Invitrogen, cat#: 25200-056). Tetracycline-free treatment medium (15 mL DMEM/F12 (1:1) 1×Pen/step, with 2% FBS, Tet-system approved (Clontech, cat#: 631106) were then added to mix, transferred into a 50 ml conical tube (Falcon, cat#: 21008-918) and spun at 1300 rpm for 5 min. Pelleted cells were then re-suspended/washed with 50 mL of 1×DPBS (Invitrogen, cat#: 14190-136) 2 times and 50 mL treatment medium twice. HepAD38 cells were then re-suspended with 10 mL of treatment medium, syringed and counted. Wells of 96-well clear bottom TC plate (Corning, cat#: 3904) were seeded at 50,000 cells/well in 180 μL of treatment medium, and 20 μL of either 10% DMSO (Sigma, cat#: D4540) as controls or a 10× solution of test compounds in 10% DMSO in treatment media was added for a final compound concentration starting at 10 μM, and plates were incubated in 5% CO2 incubator at 37° C. for 5 days.
Subsequently viral load production was assayed by quantitative PCR (qPCR) of the HBV core sequence. PCR reaction mixture containing forward primers HBV-f 5′-CTGTGCCTTGGGTGGCTTT-3′ (IDT DNA), Reverse primers HBV-r 5′-[…]-3′ (IDT DNA), Fluorescent TaqMan™ Probes HBV-probe 5′-FAM/AGCTCCAAA/ZEN/[…]/3IABkFQ-3′ (IDT DNA), 10 μL/well of PerfeCTa® qPCR ToughMix® (Quanta Biosciences, Cat#: 95114-05K), and 6 μL/well of DEPC water (Alfa Aesar, cat#: J62087) was prepared. Four μL of supernatant was added to 16 μL of the reaction mixture in a qPCR plate (Applied Biosytems, Cat#: 4309849), sealed with a film (Applied Biosystems, Cat#: 4311971), centrifuged for a few seconds, and subsequently run on an Applied Biosystems VIIA7. The PCR mixture was incubated at 45° C. for 5 min, then 95° C. for 10 min, followed by 40 cycles of 10 seconds at 95° C. and 20 seconds at 60° C. Viral load was quantified against known HBV DNA standards by using ViiA™ 7 Software. Viral load in the supernatant from wells with treated cells were compared against viral load in supernatant from DMSO control wells (≥ 3 per plate). Cell viability assay was performed with CellTiter-Glo Luminescent Cell Viability Assay (Promega, cat#: G7573) with modification. Mixed appropriate amount of CellTiter-Glo (CTG) 1×DPBS in a 1:1 ratio, added 100 uL of the mixture to each well followed completely removal of all supernatant in each well without touching cell surface. Incubated the plate at room temperature for 10 min on an orbital shaker, and then read the plate with a plate reader (TECAN M1000 or Envision). EC50 or CC50 values were calculated through curve-fitting of the four-parameter nonlinear-logistic-regression model (GraphPad Prism or Dotmatics). CC50 values were all >10 μM.

Question: With `CN1C(C(=O)Nc2ccc(F)c(Cl)c2)CC(c2cccc(-c3ccc(Cl)c(Cl)c3)c2)NS1(=O)=O` (stereo not drawn) [Example 9, N-(3-Chloro-4-fluorophenyl)-5-(3′,4′-dichloro-[1,1′-biphenyl]-3-yl)-2-methyl-1,2,6-thiadiazinane-3-carboxamide 1,1-dioxide] as the molecule, how does the EC50 read?
Answer: 1000 to 5000 nM

Question: How did the EC50 turn out when `Cc1cc(-c2cccc(C3CC(C(=O)Nc4ccc(F)c(Cl)c4)N(C)S(=O)(=O)N3)c2)ccc1F` (stereo not drawn) [Example 10, N-(3-Chloro-4-fluorophenyl)-5-(4′-fluoro-3′-methyl-[1,1′-biphenyl]-3-yl)-2-methyl-1,2,6-thiadiazinane-3-carboxamide 1,1-dioxide] was run?
Answer: < 1000 nM

Question: For `CN1C(C(=O)Nc2ccc(F)c(Cl)c2)CC(c2cccc(C3=CCOCC3)c2)NS1(=O)=O` (stereo not drawn) [Example 11, N-(3-Chloro-4-fluorophenyl)-5-(3-(3,6-dihydro-2H-pyran-4-yl)phenyl)-2-methyl-1,2,6-thiadiazinane-3-carboxamide 1,1-dioxide], which EC50 is on record?
Answer: < 1000 nM

Question: For `COC(=O)c1cccc(-c2cccc(C3CC(C(=O)Nc4ccc(F)c(Cl)c4)N(C)S(=O)(=O)N3)c2)c1` (stereo not drawn) [Example 12, Methyl 3′-(5-((3-Chloro-4-fluorophenyl)carbamoyl)-6-methyl-1,1-dioxido-1,2,6-thiadiazinan-3-yl)-[1,1′-biphenyl]-3-carboxylate], which EC50 is on record?
Answer: < 1000 nM

Question: For `CN1C(C(=O)Nc2ccc(F)c(Cl)c2)CC(c2cccc(C3CC3)c2)NS1(=O)=O` (stereo not drawn) [Example 13, N-(3-Chloro-4-fluorophenyl)-5-(3-cyclopropylphenyl)-2-methyl-1,2,6-thiadiazinane-3-carboxamide 1,1-dioxide], which EC50 is on record?
Answer: < 1000 nM

Question: For `COc1ccc(-c2cccc(C3CC(C(=O)Nc4ccc(F)c(Cl)c4)N(C)S(=O)(=O)N3)c2)cc1C(F)(F)F` (stereo not drawn) [Example 14, N-(3-Chloro-4-fluorophenyl)-5-(4′-methoxy-3′-(trifluoromethyl)-[1,1′-biphenyl]-3-yl)-2-methyl-1,2,6-thiadiazinane-3-carboxamide 1,1-dioxide], which EC50 is on record?
Answer: 1000 to 5000 nM

Question: With `COC(=O)Cc1ccc(-c2cccc(C3CC(C(=O)Nc4ccc(F)c(Cl)c4)N(C)S(=O)(=O)N3)c2)cc1` (stereo not drawn) [Example 15, Methyl 2-(3′-(5-((3-chloro-4-fluorophenyl)carbamoyl)-6-methyl-1,1-dioxido-1,2,6-thiadiazinan-3-yl)-[1,1′-biphenyl]-4-yl)acetate] as the molecule, how does the EC50 read?
Answer: < 1000 nM

Question: Which EC50 does the source give for `Cc1nn(C)cc1-c1cccc(C2CC(C(=O)Nc3ccc(F)c(Cl)c3)N(C)S(=O)(=O)N2)c1` (stereo not drawn) [Example 16, N-(3-Chloro-4-fluorophenyl)-5-(3-(1,3-dimethyl-1H-pyrazol-4-yl)phenyl)-2-methyl-1,2,6-thiadiazinane-3-carboxamide 1,1-dioxide] here?
Answer: < 1000 nM

Question: For `CN1C(C(=O)Nc2ccc(F)c(Cl)c2)CC(c2cccc(-c3cnn(CC(=O)O)c3)c2)NS1(=O)=O` (stereo not drawn) [Example 17, 2-(4-(3-(5-((3-Chloro-4-fluorophenyl)carbamoyl)-6-methyl-1,1-dioxido-1,2,6-thiadiazinan-3-yl)phenyl)-1H-pyrazol-1-yl)acetic acid], which EC50 is on record?
Answer: 5000 to 10000 nM

Question: Which EC50 does the source give for `CN1CC=C(c2cccc(C3CC(C(=O)Nc4ccc(F)c(Cl)c4)N(C)S(=O)(=O)N3)c2)CC1` (stereo not drawn) [Example 18, N-(3-Chloro-4-fluorophenyl)-2-methyl-5-(3-(1-methyl-1,2,3,6-tetrahydropyridin-4-yl)phenyl)-1,2,6-thiadiazinane-3-carboxamide 1,1-dioxide] here?
Answer: < 1000 nM

Question: How did the EC50 turn out when `CN1C(C(=O)Nc2ccc(F)c(Cl)c2)CC(c2cccc(-c3cccc(C(=O)O)c3)c2)NS1(=O)=O` (stereo not drawn) [Example 19, 3′-(5-((3-Chloro-4-fluorophenyl)carbamoyl)-6-methyl-1,1-dioxido-1,2,6-thiadiazinan-3-yl)-[1,1′-biphenyl]-3-carboxylic acid] was run?
Answer: 1000 to 5000 nM

Question: How did the EC50 turn out when `CN1C(C(=O)Nc2ccc(F)c(Cl)c2)CC(c2cccc(-c3cncn3C)c2)NS1(=O)=O` (stereo not drawn) [Example 20, N-(3-Chloro-4-fluorophenyl)-2-methyl-5-(3-(1-methyl-1H-imidazol-5-yl)phenyl)-1,2,6-thiadiazinane-3-carboxamide 1,1-dioxide] was run?
Answer: < 1000 nM

Question: How did the EC50 turn out when `CN1C(C(=O)Nc2ccc(F)c(Cl)c2)CC(c2cccc(-c3ccc(C(F)(F)F)cc3)c2)NS1(=O)=O` (stereo not drawn) [Example 21, N-(3-Chloro-4-fluorophenyl)-2-methyl-5-(4′-(trifluoromethyl)-[1,1′-biphenyl]-3-yl)-1,2,6-thiadiazinane-3-carboxamide 1,1-dioxide] was run?
Answer: < 1000 nM

Question: How did the EC50 turn out when `CN1C(C(=O)Nc2ccc(F)c(Cl)c2)CC(c2cccc(-c3ccccn3)c2)NS1(=O)=O` (stereo not drawn) [Example 22, N-(3-Chloro-4-fluorophenyl)-2-methyl-5-(3-(pyridin-2-yl)phenyl)-1,2,6-thiadiazinane-3-carboxamide 1,1-dioxide] was run?
Answer: < 1000 nM

Question: With `CN1C(C(=O)Nc2ccc(F)c(Cl)c2)CC(c2cccc(N3CCCCC3)c2)NS1(=O)=O` (stereo not drawn) [Example 23, N-(3-Chloro-4-fluorophenyl)-2-methyl-5-(3-(piperidin-1-yl)phenyl)-1,2,6-thiadiazinane-3-carboxamide 1,1-dioxide] as the molecule, how does the EC50 read?
Answer: < 1000 nM

Question: How did the EC50 turn out when `CN1C(C(=O)Nc2ccc(F)c(Cl)c2)CC(c2cccc(N3CCOCC3)c2)NS1(=O)=O` (stereo not drawn) [Example 24, N-(3-Chloro-4-fluorophenyl)-2-methyl-5-(3-morpholinophenyl)-1,2,6-thiadiazinane-3-carboxamide 1,1-dioxide] was run?
Answer: < 1000 nM

Question: With `CN1C(C(=O)Nc2ccc(F)c(Cl)c2)CC(c2cccc(-n3cccn3)c2)NS1(=O)=O` (stereo not drawn) [Example 26, 5-(3-(1H-Pyrazol-1-yl)phenyl)-N-(3-chloro-4-fluorophenyl)-2-methyl-1,2,6-thiadiazinane-3-carboxamide 1,1-dioxide] as the molecule, how does the EC50 read?
Answer: < 1000 nM

Question: Which EC50 does the source give for `Cc1nnc(C2CC(C(=O)Nc3ccc(F)c(Cl)c3)N(C)S(=O)(=O)N2)o1` (stereo not drawn) [Example 29, N-(3-Chloro-4-fluorophenyl)-2-methyl-5-(5-methyl-1,3,4-oxadiazol-2-yl)-1,2,6-thiadiazinane-3-carboxamide 1,1-dioxide] here?
Answer: 1000 to 5000 nM

Question: `Cc1nnc(C2CC(C(=O)Nc3ccc(F)c(Cl)c3)N(C)S(=O)(=O)N2)n1C` (stereo not drawn) [Example 32, N-(3-Chloro-4-fluorophenyl)-5-(4,5-dimethyl-4H-1,2,4-triazol-3-yl)-2-methyl-1,2,6-thiadiazinane-3-carboxamide 1,1-dioxide] was tested. Which EC50 did it give?
Answer: 5000 to 10000 nM

Question: `CN1C(C(=O)Nc2ccc(F)c(Cl)c2)CC(c2nnc(Cc3ccccc3)n2C)NS1(=O)=O` (stereo not drawn) [Example 33, 5-(5-Benzyl-4-methyl-4H-1,2,4-triazol-3-yl)-N-(3-chloro-4-fluorophenyl)-2-methyl-1,2,6-thiadiazinane-3-carboxamide 1,1-dioxide] was tested. Which EC50 did it give?
Answer: 5000 to 10000 nM

Question: `CN1C(C(=O)Nc2ccc(F)c(Cl)c2)CC(c2ncc(-c3ccccc3)n2C)NS1(=O)=O` (stereo not drawn) [Example 34, N-(3-Chloro-4-fluorophenyl)-2-methyl-5-(1-methyl-5-phenyl-1H-imidazol-2-yl)-1,2,6-thiadiazinane-3-carboxamide 1,1-dioxide] was tested. Which EC50 did it give?
Answer: 5000 to 10000 nM

Question: How did the EC50 turn out when `CN1C(C(=O)Nc2ccc(F)c(Cl)c2)CC(c2ccc(-c3cn(C)cn3)o2)NS1(=O)=O` (stereo not drawn) [Example 36, N-(3-Chloro-4-fluorophenyl)-2-methyl-5-(5-(1-methyl-1H-imidazol-4-yl)furan-2-yl)-1,2,6-thiadiazinane-3-carboxamide 1,1-dioxide] was run?
Answer: < 1000 nM

Question: With `CN1C(C(=O)Nc2ccc(F)c(Cl)c2)CC(c2n[nH]c(=O)n2-c2ccccc2)NS1(=O)=O` (stereo not drawn) [Example 37, N-(3-Chloro-4-fluorophenyl)-2-methyl-5-(5-oxo-4-phenyl-4,5-dihydro-1H-1,2,4-triazol-3-yl)-1,2,6-thiadiazinane-3-carboxamide 1,1-dioxide] as the molecule, how does the EC50 read?
Answer: 1000 to 5000 nM

Question: How did the EC50 turn out when `CN1C(C(=O)Nc2ccc(F)c(Cl)c2)CC(c2n[nH]c(=O)n2Cc2ccccc2)NS1(=O)=O` (stereo not drawn) [Example 38, 5-(4-Benzyl-5-oxo-4,5-dihydro-1H-1,2,4-triazol-3-yl)-N-(3-chloro-4-fluorophenyl)-2-methyl-1,2,6-thiadiazinane-3-carboxamide 1,1-dioxide] was run?
Answer: 5000 to 10000 nM
